Results from PubChem BioAssay (NCI).
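Exposure lasted 48 hours, with cells grown in 96-well plates and compounds tested at five concentrations. Here, GI50 denotes the concentration required for 50% inhibition of growth. Definition used: TGI = concentration required for complete inhibition of growth.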

How the values were obtained:
Test in all cases: inhibition of tumour cell growth, NCI panel, 48 h
DU-145 prostate = test system: DU-145 prostate
A549 NSCLC = test system: A549 NSCLC
OVCAR-8 ovarian = test system: OVCAR-8 ovarian
ACHN renal = test system: ACHN renal
SNB-75 CNS = test system: SNB-75 CNS
HT29 colon = test system: HT29 colon
KM12 colon = test system: KM12 colon
MALME-3M melanoma = test system: MALME-3M melanoma
LOX IMVI melanoma = test system: LOX IMVI melanoma
NCI-H460 lung = test system: NCI-H460 lung

Structure (SMILES) | GI50 (DU-145 prostate) [nM] | TGI (DU-145 prostate) [µM] | GI50 (A549 NSCLC) [nM] | TGI (A549 NSCLC) [µM] | GI50 (OVCAR-8 ovarian) [nM] | TGI (OVCAR-8 ovarian) [µM] | GI50 (ACHN renal) [nM] | TGI (ACHN renal) [µM] | GI50 (SNB-75 CNS) [nM] | TGI (SNB-75 CNS) [µM] | GI50 (HT29 colon) [nM] | TGI (HT29 colon) [µM] | GI50 (KM12 colon) [nM] | TGI (KM12 colon) [µM] | GI50 (MALME-3M melanoma) [nM] | TGI (MALME-3M melanoma) [µM] | GI50 (LOX IMVI melanoma) [nM] | TGI (LOX IMVI melanoma) [nM] | GI50 (NCI-H460 lung) [nM] | TGI (NCI-H460 lung) [µM]
COc1ccc(C/C(C)=C(/c2ccc(OCCN3CCCCC3)cc2)c2ccc(OC(=O)NCc3ccccc3)cc2)cc1 | 442 | 0.805 | 413 | 0.821 | 472 | 0.937 | 434 | 0.78 | 355 | 0.716 | 385 | 0.841 | 440 | 0.826 | 395 | 0.776 | 421 | 779 | 412 | 0.775
C=CCN=C(N/N=C/c1ccc([N+](=O)[O-])o1)NS(=O)(=O)c1cc(C(=O)Nc2ccc(Cl)cc2)c(Cl)cc1SC | 2720 | > 35.2 | > 37300 | > 100 | – | > 20.7 | 3550 | > 50.1 | > 100000 | > 100 | 5810 | > 100 | 6890 | > 100 | 5080 | 63.4 | > 64100 | > 100000 | 2220 | > 35.2
CN(C)CCN1C(=O)c2c(c3c4ccccc4n4c3c3c2c2ccccc2n3C2CC(O)C(O)C4(C)O2)C1=O (centres undefined) | 1120 | 9.42 | 643 | 7.4 | 1470 | 9.39 | 816 | 3.37 | 1410 | 8.29 | 1040 | 7.54 | 1740 | 10.2 | 2140 | 9.3 | 448 | 1890 | 232 | 5.08
O=C1NNC2(C(=O)N1)c1ccccc1-c1ccccc12 | – | > 10 | – | > 10 | – | > 10 | – | > 10 | – | > 10 | – | > 10 | – | > 10 | – | > 10 | – | > 10000 | – | > 10
Cc1cc(NCCCN(C)C)c2ccc3c(ccc4c(NCCCN(C)C)cc(C)nc43)c2n1 | 159 | 0.436 | 64.3 | 0.411 | 114 | 0.295 | 238 | 0.744 | 165 | 0.42 | 149 | 0.503 | 205 | 0.57 | 244 | 0.894 | 176 | 401 | 171 | 0.441
COc1cc(C(=O)c2c(-c3ccccc3)oc3c(OC)cccc23)cc(OC)c1OC | 125 | > 65.6 | 73.6 | > 100 | 110 | > 100 | 71.9 | > 100 | 23.4 | 0.552 | 49.1 | > 100 | 56.7 | > 100 | 1320 | > 100 | 53.6 | > 100000 | 51.8 | > 100
NCCCC[C@@H]1NC(=O)[C@H]2CCCN2C(=O)[C@H](Cc2ccccc2)CNC(=O)[C@H](Cc2ccccc2)NC1=O | > 37500 | > 37.5 | > 37500 | > 37.5 | > 37500 | > 37.5 | > 37500 | > 37.5 | > 37500 | > 37.5 | > 37500 | > 37.5 | > 37500 | > 37.5 | > 37500 | > 37.5 | > 37500 | > 37500 | > 37500 | > 37.5
O=C1/C(=C/c2ccccc2)CN(C(=O)CCN2CCOCC2)C/C1=C\c1ccccc1 | – | 29.5 | – | 20.2 | – | 10.3 | – | 11.3 | – | 20 | – | 3.8 | – | 2.99 | – | 6.32 | – | 2210 | – | 5.47
COc1cc2c(cc1OC)[C@H](C)N1CCc3cc(OC)c(OC)cc3[C@@H]1C2 | – | > 100 | – | > 100 | – | > 100 | – | > 100 | – | > 100 | – | > 100 | – | > 100 | – | > 100 | – | > 100000 | – | > 100
